Assay [1] deals with Staphylococcus aureus. Description: Antibacterial activity against methicillin-resistant Staphylococcus aureus ATCC 43300 assessed as reduction in bacterial growth incubated for 24 hrs by CLSI protocol based analysis. The assay is classed as functional.
Assay [2] has as its system SH-SY5Y. As to the kind of experiment: Neuroprotective activity against MPP-induced cytotoxicity in human SH-SY5Y cells assessed as decrease in cell death at 10 umol/L preincubated with compound for 24 hrs followed by MPP addition and measured after 24 hrs by MTT assay. It counts as functional, cell-based. The settings on record: dose 10.0 µmol/L, time 48.0 hrs. (In general: Tetrazolium assays rely on reduction of a dye to a coloured formazan, in cell work by metabolically active cells.)

Another assay deals with Salmonella enterica. Description: Antibacterial activity against Salmonella enterica ATCC 14028 assessed as reduction in bacterial growth after 24 hrs by CLSI protocol based analysis. It counts as functional.
In another assay the test system is Enterococcus faecium. As to the kind of experiment: Antibacterial activity against Enterococcus faecium ATCC 19434 assessed as reduction in bacterial growth after 24 hrs by CLSI protocol based analysis. The assay is classed as functional.
A further assay has as its system Trichophyton rubrum. As to the kind of experiment: Antifungal activity against Trichophyton rubrum NBRC 9185 assessed as inhibition of fungal growth incubated for 96 hrs by CLSI protocol based analysis. The assay is classed as functional.
Assay [3] relates to Staphylococcus aureus. As to the kind of experiment: Antibacterial activity against Staphylococcus aureus ATCC 25923 assessed as reduction in bacterial growth incubated for 24 hrs by CLSI protocol based analysis. The assay is classed as functional.
The test system of a further assay is Escherichia coli. Description: Antibacterial activity against Escherichia coli ATCC 25922 assessed as reduction in bacterial growth after 24 hrs by CLSI protocol based analysis. It counts as functional.
The next assay relates to Aspergillus fumigatus. Description: Antifungal activity against Aspergillus fumigatus HIC 6094 assessed as inhibition of fungal growth incubated for 48 hrs by CLSI protocol based analysis. It counts as functional.
Assay [4] has as its system Trichophyton mentagrophytes. As to the kind of experiment: Antifungal activity against Trichophyton mentagrophytes IFM 40996 assessed as inhibition of fungal growth incubated for 96 hrs by CLSI protocol based analysis. The assay is classed as functional.
For assay [5], the system named is SH-SY5Y. As to the kind of experiment: Neuroprotective activity against MPP-induced cytotoxicity in human SH-SY5Y cells assessed as increase in Bcl-xL mRNA expression level at 10 umol/L by RT-qPCR analysis. The assay is classed as functional, cell-based. The settings on record: dose 10.0 µmol/L. For orientation: Quantitative PCR measures a nucleic acid by following its amplification.

The test system of the next assay is Klebsiella pneumoniae. Description: Antibacterial activity against Klebsiella pneumoniae ATCC 10031 assessed as reduction in bacterial growth after 24 hrs by CLSI protocol based analysis. The assay is classed as functional.
Assay [6] relates to SH-SY5Y. As to the kind of experiment: Neuroprotective activity against MPP-induced cytotoxicity in human SH-SY5Y cells assessed as decrease in Bak mRNA expression level at 10 umol/L by RT-qPCR analysis. The assay is classed as functional, cell-based. The following applies: dose 10.0 µmol/L.
Assay [7] relates to Mycobacterium tuberculosis. Description: Antitubercular activity against wild type Mycobacterium tuberculosis mc2 6230 assessed as bacterial growth inhibition incubated for 5 days by resazurin microtiter assay. The assay is classed as functional. The settings on record: mc2 6230, 120 h, time 5 day. On the technique in general: Resazurin is reduced to fluorescent resorufin, in cell work by metabolically active cells.

A further assay concerns Candida albicans. Description: Antifungal activity against Candida albicans ATCC 10231 assessed as reduction in fungal growth incubated for 24 hrs by CLSI protocol based analysis. The assay is classed as functional.
The test system of the next assay is Enterococcus faecalis. Description: Antibacterial activity against Enterococcus faecalis ATCC 19433 assessed as reduction in bacterial growth after 24 hrs by CLSI protocol based analysis. The assay is classed as functional.

The source made the active and inactive calls. No cut-off for these calls is given here. Bounds are passed on as bounds.

`CCC/C=C/C=C/C=C/[C@@H](O)C[C@]1(O)O[C@H](C[C@H](O)[C@@H](O)[C@H](O)[C@H]2OC(=O)[C@@H](C)[C@@H]2O)[C@@H](O)[C@H](O)[C@@H]1O`: the minimum inhibitory concentration (MIC) in the assay on Staphylococcus aureus [1], in the assay on Salmonella enterica, in the assay on Enterococcus faecium, in the assay on Trichophyton rubrum, in the assay on Staphylococcus aureus [3] and in the assay with Escherichia coli was greater than 128 µg/mL each time. The MIC (with Aspergillus fumigatus; in assay [4]; in the assay with Klebsiella pneumoniae; in [7]; in the assay with Candida albicans; in the assay on Enterococcus faecalis) was greater than 128 µg/mL each time. Further, the result with SH-SY5Y [2], in the assay on SH-SY5Y [5] and in the assay with SH-SY5Y [6] was Active.

(Values after ChEMBL document CHEMBL5344449, “Retinestatin, a Polyol Polyketide from a Termite Nest-Derived Streptomyces sp” (2024).)
